{
  "source": "patent US11598051B2",
  "about": "“Method for manufacturing a fibrous web” (Kemira Oyj, priority 2017, dated 2023)",
  "key": {"[1]": {"test_system": "Total aerobic bacteria (authentic bacterial population of a broke sample)", "assay": "Example 1 laboratory broke test: total aerobic bacteria by agar plate cultivation", "assay_type": "cell-based", "conditions": "for Total aerobic bacteria: 10 mg/l as total active chlorine, +45° C.", "description": "(§1) This laboratory test compared efficacy of two oxidizing biocides, namely free active chlorine and stabilized active chlorine, in killing of vegetative bacterial cells and in controlling of bacterial spore formation. Test was performed with authentic bacterial population of a broke sample taken from couch pit of a board machine making 3-ply food-packaging board. Broke sample was divided in equal proportions. Two reference samples were stored as such, the “free active chlorine” sample was treated with sodium hypochlorite, and the “stabilized active chlorine” sample was treated with sodium hypochlorite stabilized by 5,5-dimethylhydantoin (mixed in 1:1 molar ratio to form monochloro-5,5-dimethylhydantoin, MCDMH). Both forms of active chlorine were dosed at 10 ppm (=mg/l as total active chlorine Cl2). Broke samples were stored at +45° C. without mixing. Total aerobic bacteria and aerobic bacterial spores were quantified by using conventional agar plate cultivation methods (Plate Count Agar, incubation at +37° C. for 2 days) at the beginning of the test (untreated reference samples) and after 1 and 2 days of contact time. Broke pH and Redox (mV) values were also monitored."}, "aerobic bacterial spores [2]": {"test_system": "aerobic bacterial spores", "assay": "Example 1 laboratory broke test: aerobic bacterial spores by agar plate cultivation", "assay_type": "cell-based, bacteria", "conditions": "for Bacterial spores: 10 mg/l as total active chlorine, +45° C.", "description": "as §1"}, "aerobic bacterial spores [3]": {"test_system": "aerobic bacterial spores", "assay": "Example 3 board machine biocide programs: aerobic bacterial spores from process locations", "design": "species or system bacteria", "conditions": "for ΔSpore content within the broke system: difference between inlet and outlet", "description": "(§2) This example compares technical performance of two different biocide programs in the broke system of a 3-ply board machine producing food-packaging board. Broke system is a part of the wet-end of the board making process. This board machine has set a hygiene target for the final board that it should contain aerobic bacterial spores less than 1000 CFU, and preferably less than 250 CFU, per gram of dry board.\n(§3) In this experiment, for the first period (Days 1-10) the machine was running a biocide program consisting of stabilized active chlorine (MCDMH) and glutaraldehyde. For the second period, the machine was running chlorine dioxide, a non-stabilized oxidizer, as the biocide. It was running for 10 days starting from a shutdown (Days 15-25). Third period (Days 26-47) was run with the same MCDMH and glutaraldehyde program as the first period. During this experiment technical performance of the two different biocide programs was monitored at selected dates by several means: on-line Redox monitoring system collecting Redox values at every 10 minutes (results are shown as daily average mV values); measuring aerobic spore content of the final board samples; and by measuring aerobic bacterial spore quantities from different process locations by using agar plate cultivation methods (pasteurization at 82° C. for 20 min, followed by cultivation on Plate Count Agar for 2 days at +37° C.)."}, "aerobic bacterial spores [4]": {"test_system": "aerobic bacterial spores", "assay": "Example 3 board machine biocide programs: aerobic spore content of final board", "design": "species or system bacteria", "description": "as §2, §3"}, "[5]": {"test_system": "Total aerobic bacteria (mill's authentic bacterial population)", "assay": "Example 2 laboratory broke storage test: total aerobic bacteria by agar plate cultivation", "assay_type": "cell-based", "description": "(§4) This laboratory test was performed with broke sample taken from an alkaline board machine producing 3-ply food-packaging board and the sample included the mill's authentic bacterial population in it. The sample was divided in two different containers, one stored as such and the second one amended with biocide, 50 mg/l of glutaraldehyde as active agent. Containers were closed and stored at +45° C. without mixing i.e. under conditions that simulate situation in broke storage tower during a machine shutdown. Total aerobic bacteria and aerobic spore contents were determined by using conventional agar plate cultivation methods (plate count agar, 2 days incubation at +37° C.) at the beginning of the test and after 3 days of storage time, along with pH and redox measurements."}, "aerobic spores": {"test_system": "aerobic spores", "assay": "Example 2 laboratory broke storage test: aerobic spore content by agar plate cultivation", "assay_type": "cell-based, bacteria", "description": "as §4"}, "[6]": {"conditions": "Day 15, second period (Days 15-25)"}, "[7]": {"conditions": "Day 19, second period (Days 15-25)"}, "[8]": {"conditions": "Day 25, second period (Days 15-25)"}, "[9]": {"conditions": "broke, 50 mg/l as active agent, +45° C., closed, after 3 days storage time"}},
  "data": [
    {"smiles": "CC1(C)NC(=O)N(Cl)C1=O", "note": "[MCDMH, monochloro-5,5-dimethylhydantoin]", "values": [
      {"measurement": "stronger reduction of total aerobic bacteria content compared to free chlorine", "setting": "[1]; 10 mg/l as active chlorine, after 1 day of storage", "result": 1, "unit": "log unit"},
      {"measurement": "Total aerobic bacteria", "setting": "[1]; broke, 1 days storage time", "result": "6×10^4 CFU/ml"},
      {"measurement": "Total aerobic bacteria", "setting": "[1]; broke, 2 days storage time", "result": "2 × 10^7 CFU/ml"},
      {"measurement": "spore formation in the broke", "setting": "aerobic bacterial spores [2]; 10 mg/l as active chlorine, 2 days experiment", "result": "did not cause any new spore formation"},
      {"measurement": "spore counts", "setting": "aerobic bacterial spores [2]; 10 mg/l as active chlorine, during the 2 days experiment", "result": "30-60 CPU/ml"},
      {"measurement": "Bacterial spores", "setting": "aerobic bacterial spores [2]; 1 days storage time", "result": 30, "unit": "CFU/ml"},
      {"measurement": "Bacterial spores", "setting": "aerobic bacterial spores [2]; 2 days storage time", "result": 60, "unit": "CFU/ml"},
      {"measurement": "spores in incoming pulp", "setting": "aerobic bacterial spores [3]; first period (Days 1-10)", "result": "30-80 CFU/ml"},
      {"measurement": "spores in pulp transportation water", "setting": "aerobic bacterial spores [3]; first period (Days 1-10)", "result": 15, "unit": "CFU/ml"}
    ]},
    {"smiles": "[Na+].[O-]Cl", "note": "[Na-hypochlorite, sodium hypochlorite]", "values": [
      {"measurement": "Total aerobic bacteria", "setting": "[1]; broke, 1 days storage time", "result": "4 × 10^5 CFU/ml"},
      {"measurement": "Total aerobic bacteria", "setting": "[1]; broke, 2 days storage time", "result": "2 × 10^7 CFU/ml"},
      {"measurement": "killing effect", "setting": "[1]; broke, 10 ppm dosing level", "result": "did not demonstrate any longer-term killing effect"},
      {"measurement": "total aerobic bacteria content", "setting": "[1]; broke, 10 ppm, after 1 day of storage", "result": "4×10^5 CPU/ml"},
      {"measurement": "Bacterial spores", "setting": "aerobic bacterial spores [2]; 1 days storage time", "result": 60, "unit": "CFU/ml"},
      {"measurement": "Bacterial spores", "setting": "aerobic bacterial spores [2]; 2 days storage time", "result": 670, "unit": "CFU/ml"},
      {"measurement": "increase in the quantity of aerobic spores", "setting": "aerobic bacterial spores [2]; 10 ppm, 1 day to 2 days storage (60 to 670 CFU/ml)", "result": 10, "unit": "fold"}
    ]},
    {"smiles": "[O][Cl+][O-]", "note": "[chlorine dioxide]", "values": [
      {"measurement": "Aerobic Bacterial Spores in process, High consistency (4-6 w/w-%) broke tower", "setting": "aerobic bacterial spores [3]; [6]", "result": 440, "unit": "CFU/ml"},
      {"measurement": "Aerobic Bacterial Spores in process, Incoming Pulp", "setting": "aerobic bacterial spores [3]; [6]", "result": 20, "unit": "CFU/ml"},
      {"measurement": "Aerobic Bacterial Spores in process, Low consistency (1-4 w/w-%) broke tower", "setting": "aerobic bacterial spores [3]; [6]", "result": 250, "unit": "CFU/ml"},
      {"measurement": "ΔSpore content within the broke system", "setting": "aerobic bacterial spores [3]; Day 15, second period", "result": "+190 CFU/ml"},
      {"measurement": "Aerobic Bacterial Spores in process, High consistency (4-6 w/w-%) broke tower", "setting": "aerobic bacterial spores [3]; [7]", "result": 1100, "unit": "CFU/ml"},
      {"measurement": "Aerobic Bacterial Spores in process, Incoming Pulp", "setting": "aerobic bacterial spores [3]; [7]", "result": 60, "unit": "CFU/ml"},
      {"measurement": "Aerobic Bacterial Spores in process, Low consistency (1-4 w/w-%) broke tower", "setting": "aerobic bacterial spores [3]; [7]", "result": 610, "unit": "CFU/ml"},
      {"measurement": "ΔSpore content within the broke system", "setting": "aerobic bacterial spores [3]; Day 19, second period", "result": "+490 CFU/ml"},
      {"measurement": "Aerobic Bacterial Spores in process, High consistency (4-6 w/w-%) broke tower", "setting": "aerobic bacterial spores [3]; [8]", "result": 950, "unit": "CFU/ml"},
      {"measurement": "Aerobic Bacterial Spores in process, Low consistency (1-4 w/w-%) broke tower", "setting": "aerobic bacterial spores [3]; [8]", "result": 850, "unit": "CFU/ml"},
      {"measurement": "ΔSpore content within the broke system", "setting": "aerobic bacterial spores [3]; Day 25, second period", "result": "+100 CFU/ml"},
      {"measurement": "spore formation in the broke system", "setting": "aerobic bacterial spores [3]; second period (Days 15-25)", "result": "triggered intensive spore formation"},
      {"measurement": "spore quantities in the high consistency broke tower", "setting": "aerobic bacterial spores [3]; second period (Days 15-25), maximum", "result": "up to 1100 CFU/ml"},
      {"measurement": "Bacterial Spores in Final Board", "setting": "aerobic bacterial spores [4]; [6]", "result": 520, "unit": "CFU/g"},
      {"measurement": "Bacterial Spores in Final Board", "setting": "aerobic bacterial spores [4]; [7]", "result": 5530, "unit": "CFU/g"},
      {"measurement": "Bacterial Spores in Final Board", "setting": "aerobic bacterial spores [4]; Day 21, second period (Days 15-25)", "result": 9580, "unit": "CFU/g"},
      {"measurement": "Bacterial Spores in Final Board", "setting": "aerobic bacterial spores [4]; [8]", "result": 3210, "unit": "CFU/g"},
      {"measurement": "spore content in the final board, highest value", "setting": "aerobic bacterial spores [4]; second period (Days 15-25)", "result": "≤ 9580", "unit": "CFU/g"}
    ]},
    {"smiles": "O=CCCCC=O", "note": "[glutaraldehyde]", "values": [
      {"measurement": "killing effect", "setting": "[5]; 50 mg/l, 3 days of storage", "result": "did not have a long-lasting killing effect"},
      {"measurement": "total aerobic bacteria relative to the untreated reference", "setting": "[5]; 50 mg/l, after 3 days of storage", "result": 40, "unit": "%"},
      {"measurement": "Total aerobic bacteria", "setting": "[5]; [9]", "result": "2×10^7 CFU/ml"},
      {"measurement": "spore formation in the broke sample", "setting": "aerobic spores; 50 mg/l, 3 days of storage", "result": "not triggering any spore formation"},
      {"measurement": "Bacterial spores", "setting": "aerobic spores; [9]", "result": 80, "unit": "CFU/ml"}
    ]}
  ]
}
